Read-outs that look alike come from different tables or passages of the source.
Molecular target: CFTR-mediated chloride transport in human intestinal epithelial enteroid cells (Homo sapiens, UniProt P13569)
Test: Membrane potential dye, Enteroid Assay A
Type: cell-based
Conditions: for EC50: read-out: Ent. A EC50
Outline: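 Membrane potential dye (20 μM methyl oxonol, with 30 μM CaCCinh-A01 and 30 μM Chicago Sky Blue) loaded 25 min at room temperature into ROCK-inhibitor-seeded human enteroid cells. Chloride-free stimulation buffer triggered transport, followed by 15 min fluorescence. % Activity relative to 3 μM/3 μM/300 nM triple-combination control.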

[1] = enteroid cells incubated with test compound 18-24 hours, acute 10 μM forskolin and 300 nM N-[2,4-bis(1,1-dimethylethyl)-5-hydroxyphenyl]-1,4-dihydro-4-oxoquinoline-3-carboxamide
[2] = percentage of chloride transport of triple combination control (3 μM N-[(6-amino-2-pyridyl)sulfonyl]-6-(3-fluoro-5-isobutoxy-phenyl)-2-[(4S)-2,2,4-trimethylpyrrolidin-1-yl]pyridine-3-carboxamide based)

Chain of CFTR-mediated chloride transport in human intestinal epithelial enteroid cells (P13569 with tags, fused parts or gaps DEL508-508): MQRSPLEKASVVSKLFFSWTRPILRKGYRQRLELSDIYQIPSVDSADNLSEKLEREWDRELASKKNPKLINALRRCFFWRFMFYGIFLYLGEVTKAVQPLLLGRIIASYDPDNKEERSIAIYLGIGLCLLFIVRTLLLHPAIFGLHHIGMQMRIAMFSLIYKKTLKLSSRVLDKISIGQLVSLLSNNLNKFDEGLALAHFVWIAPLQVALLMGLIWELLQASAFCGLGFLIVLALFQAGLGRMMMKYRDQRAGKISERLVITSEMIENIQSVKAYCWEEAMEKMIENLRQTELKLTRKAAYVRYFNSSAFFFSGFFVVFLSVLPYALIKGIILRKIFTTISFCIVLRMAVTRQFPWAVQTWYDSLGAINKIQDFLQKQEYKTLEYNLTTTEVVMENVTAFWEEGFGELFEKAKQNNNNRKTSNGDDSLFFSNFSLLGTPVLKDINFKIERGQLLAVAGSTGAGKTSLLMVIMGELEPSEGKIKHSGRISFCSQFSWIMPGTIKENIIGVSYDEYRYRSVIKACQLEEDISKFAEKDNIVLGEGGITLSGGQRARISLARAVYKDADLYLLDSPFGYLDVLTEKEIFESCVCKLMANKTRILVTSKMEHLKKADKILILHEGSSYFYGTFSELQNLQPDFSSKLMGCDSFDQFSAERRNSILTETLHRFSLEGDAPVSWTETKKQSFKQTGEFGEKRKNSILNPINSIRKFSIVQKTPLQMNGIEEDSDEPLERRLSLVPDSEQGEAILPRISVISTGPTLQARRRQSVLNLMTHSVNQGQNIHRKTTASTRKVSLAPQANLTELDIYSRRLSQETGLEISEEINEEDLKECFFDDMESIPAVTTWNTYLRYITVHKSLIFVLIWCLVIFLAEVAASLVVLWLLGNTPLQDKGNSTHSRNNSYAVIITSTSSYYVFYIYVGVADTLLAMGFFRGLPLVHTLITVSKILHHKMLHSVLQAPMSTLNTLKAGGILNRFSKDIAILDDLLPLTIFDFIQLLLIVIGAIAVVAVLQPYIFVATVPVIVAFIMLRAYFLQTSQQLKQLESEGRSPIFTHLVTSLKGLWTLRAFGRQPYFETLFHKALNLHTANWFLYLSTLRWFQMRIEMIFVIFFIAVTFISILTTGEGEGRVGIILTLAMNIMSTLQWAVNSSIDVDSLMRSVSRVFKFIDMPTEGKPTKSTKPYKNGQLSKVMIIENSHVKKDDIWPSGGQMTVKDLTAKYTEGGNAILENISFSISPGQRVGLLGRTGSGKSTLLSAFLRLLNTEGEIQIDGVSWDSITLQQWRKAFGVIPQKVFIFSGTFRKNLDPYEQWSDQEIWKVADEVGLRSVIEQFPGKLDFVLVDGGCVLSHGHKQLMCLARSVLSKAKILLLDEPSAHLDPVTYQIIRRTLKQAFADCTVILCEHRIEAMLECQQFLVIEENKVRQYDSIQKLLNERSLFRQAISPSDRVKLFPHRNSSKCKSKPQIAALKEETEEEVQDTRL

| Ent. A Max Activity (%) (Enteroid Assay A) | EC50 (Enteroid Assay A) [µM] | Compound | EC50 [1] [µM] | Ent. A Max Activity (%) [2] |
| --- | --- | --- | --- | --- |
| – | – | Cc1cccc(C)c1-c1cc2nc(n1)NS(=O)(=O)c1cccc(c1)C(=O)N1CCN(Cc3ccccc3)C[C@@H]1CO2 [Compound 164, (8R)-6-Benzyl-13-(2,6-dimethylphenyl)-10-oxa-17λ^6-thia-3,6,14,16,23-pentaazatetracyclo[16.3.1.111,15.03,8]tricosa-1(21),11,13,15(23),18(22),19-hexaene-2,17,17-trione] | < 1 | +++ (+++ is >60%) |
| – | – | Cc1cccc(C)c1-c1cc2nc(n1)NS(=O)(=O)c1cccc(c1)C(=O)N1CCN(C(C)C)C[C@@H]1CO2 [Compound 165, (8R)-13-(2,6-Dimethylphenyl)-6-(propan-2-yl)-10-oxa-17λ^6-thia-3,6,14,16,23-pentaazatetracyclo[16.3.1.111,15.03,8]tricosa-1(21),11,13,15(23),18(22),19-hexaene-2,17,17-trione] | 3 to 30 | +++ (+++ is >60%) |
| – | – | Cc1cccc(C)c1-c1cc2nc(n1)NS(=O)(=O)c1cccc(c1)C(=O)N1CCN(C(=O)NC3CCCCCC3)C[C@@H]1CO2 [Compound 166, (8R)—N-Cycloheptyl-13-(2,6-dimethylphenyl)-2,17,17-trioxo-10-oxa-17λ^6-thia-3,6,14,16,23-pentaazatetracyclo[16.3.1.111,15.03,8]tricosa-1(21),11,13,15(23),18(22),19-hexaene-6-carboxamide] | 3 to 30 | +++ (+++ is >60%) |
| – | – | Cc1cccc(C)c1-c1cc2nc(n1)NS(=O)(=O)c1cccc(c1)C(=O)N1CCN(C(=O)N(C(C)C)C(C)C)C[C@@H]1CO2 [Compound 167, (8R)-13-(2,6-Dimethylphenyl)-2,17,17-trioxo-N,N-bis(propan-2-yl)-10-oxa-17λ^6-thia-3,6,14,16,23-pentaazatetracyclo[16.3.1.111,15.03,8]tricosa-1(21),11,13,15(23),18(22),19-hexaene-6-carboxamide] | 1 to 3 | +++ (+++ is >60%) |
| – | – | Cc1cccc(C)c1-c1cc2nc(n1)NS(=O)(=O)c1cccc(c1)C(=O)N1CCN(C(=O)C3CCCCC3)C[C@@H]1CO2 [Compound 168, (8R)-6-Cyclohexanecarbonyl-13-(2,6-dimethylphenyl)-10-oxa-17λ^6-thia-3,6,14,16,23-pentaazatetracyclo[16.3.1.111,15.03,8]tricosa-1(21),11,13,15(23),18(22),19-hexaene-2,17,17-trione] | < 1 | +++ (+++ is >60%) |
| – | – | Cc1cccc(C)c1-c1cc2nc(n1)NS(=O)(=O)c1cccc(c1)C(=O)N1CCN(Cc3ccccc3)CC1CO2 (centres unmarked) [Compound 169, 6-Benzyl-13-(2,6-dimethylphenyl)-10-oxa-17λ^6-thia-3,6,14,16,23-pentaazatetracyclo[16.3.1.111,15.03,8]tricosa-1(21),11,13,15(23),18(22),19-hexaene-2,17,17-trione] | < 1 | +++ (+++ is >60%) |
| – | – | Cc1cccc(C)c1-c1cc2nc(n1)NS(=O)(=O)c1cccc(c1)C(=O)N1CCNCC1C(C)O2 (centres unmarked) [Compound 172, 13-(2,6-dimethylphenyl)-9-methyl-10-oxa-17λ^6-thia-3,6,14,16,23-pentaazatetracyclo[16.3.1.111,15.03,8]tricosa-1(22),11,13,15(23),18,20-hexaene-2,17,17-trione] | – | + (+ is <300%) |
| +++ (+++ is >600%) | < 1 | Cc1cccc(C)c1-c1cc2nc(n1)NS(=O)(=O)c1cccc(c1)C(=O)N1CCN(C(C)C)CC1C(Cc1ccccc1)O2 (centres unmarked) [Compound 174, 9-benzyl-13-(2,6-dimethylphenyl)-6-(propan-2-yl)-10-oxa-17λ^6-thia-3,6,14,16,23-pentaazatetracyclo[16.3.1.111,15.03,8]tricosa-1(22),11,13,15(23),18,20-hexaene-2,17,17-trione] | – | – |
| + (+ is <30%) | 3 to 30 | Cc1cccc(C)c1-c1cc2nc(n1)NS(=O)(=O)c1cccc(c1)C(=O)N1CCNCC1C(Cc1ccccc1)O2 (centres unmarked) [Compound 176, 9-benzyl-13-(2,6-dimethylphenyl)-10-oxa-17λ^6-thia-3,6,14,16,23-pentaazatetracyclo[16.3.1.111,15.03,8]tricosa-1(22),11,13,15(23),18,20-hexaene-2,17,17-trione] | – | – |
| – | – | Cc1cccc(C)c1-c1cc2nc(n1)NS(=O)(=O)c1cccc(c1)C(=O)N1CCN(CCC(C)(C)C)C(CO2)C1 (centres unmarked) [Compound 177, 18-(3,3-Dimethylbutyl)-12-(2,6-dimethylphenyl)-15-oxa-8λ^6-thia-1,9,11,18,22-pentaazatetracyclo[15.3.1.13,7.110,14]tricosa-3(23),4,6,10(22),11,13-hexaene-2,8,8-trione] | < 1 | ++ (++ is 30-60%) |
| – | – | Cc1cccc(C)c1-c1cc2nc(n1)NS(=O)(=O)c1cccc(c1)C(=O)N1CCN(Cc3ccccc3)C(CO2)C1 (centres unmarked) [Compound 178, 18-Benzyl-12-(2,6-dimethylphenyl)-15-oxa-8λ^6-thia-1,9,11,18,22-pentaazatetracyclo[15.3.1.13,7.110,14]tricosa-3,5,7(23),10(22),11,13-hexaene-2,8,8-trione] | < 1 | ++ (++ is 30-60%) |
| + (+ is <30%) | – | Cc1cccc(C)c1-c1cc2nc(n1)NS(=O)(=O)c1cccc(c1)C(=O)N1Cc3cc(C(C)(C)C)ccc3C(C1)O2 (centres unmarked) [Compound 182, 20-tert-Butyl-12-(2,6-dimethylphenyl)-15-oxa-8λ^6-thia-1,9,11,25-tetraazapentacyclo[14.7.1.13,7.110,14.017,22]hexacosa-3,5,7(26),10,12,14(25),17,19,21-nonaene-2,8,8-trione] | – | – |
| +++ (+++ is >600%) | < 1 | Cc1cccc(C)c1-c1cc2nc(n1)NS(=O)(=O)c1cccc(c1)C(=O)N1Cc3cc(C(C)(C)C)ccc3[C@H](O2)[C@H]1CC(C)C [Compound 184, (16S,24R)-20-tert-Butyl-12-(2,6-dimethylphenyl)-24-(2-methylpropyl)-15-oxa-8λ^6-thia-1,9,11,25-tetraazapentacyclo[14.7.1.13,7.110,14.017,22]hexacosa-3,5,7(26),10,12,14(25),17,19,21-nonaene-2,8,8-trione] | – | – |
| +++ (+++ is >600%) | < 1 | Cc1cccc(C)c1-c1cc2nc(n1)NS(=O)(=O)c1cccc(c1)C(=O)N1Cc3cc(C(C)(C)C)ccc3[C@@H](O2)[C@H]1CC(C)C [Compound 185, (16R,24R)-20-tert-butyl-12-(2,6-dimethylphenyl)-24-(2-methylpropyl)-15-oxa-8λ^6-thia-1,9,11,25-tetraazapentacyclo[14.7.1.13,7.110,14.017,22]hexacosa-3,5,7(26),10,12,14(25),17,19,21-nonaene-2,8,8-trione] | – | – |
| ++ (++ is 30-60%) | < 1 | Cc1cccc(C)c1-c1cc2nc(n1)NS(=O)(=O)c1cccc(c1)C(=O)N1CCCN(CCC(C)(C)C)CC(C1)O2 (centres unmarked) [Compound 206, 18-(3,3-Dimethylbutyl)-12-(2,6-dimethylphenyl)-15-oxa-8λ^6-thia-1,9,11,18,23-pentaazatetracyclo[14.5.1.13,7.110,14]tetracosa-3,5,7(24),10,12,14(23)-hexaene-2,8,8-trione] | – | – |
| – | – | Cc1cccc(C)c1-c1cc2nc(n1)NS(=O)(=O)c1cc(n(C)c1)C(=O)N1Cc3ccccc3C(C1)O2 (centres unmarked) [Compound 207, 11-(2,6-Dimethylphenyl)-4-methyl-14-oxa-7λ^6-thia-1,4,8,10,24-pentaazapentacyclo[13.7.1.13,6.19,13.016,21]pentacosa-3(25),5,9(24),10,12,16(21),17,19-octaene-2,7,7-trione] | < 1 | ++ (++ is 30-60%) |
| – | – | Cc1cccc(C)c1-c1cc2nc(n1)NS(=O)(=O)c1cccc(c1)CN1Cc3ccccc3C(C1)O2 (centres unmarked) [Compound 208, 12-(2,6-Dimethylphenyl)-15-oxa-8λ^6-thia-1,9,11,25-tetraazapentacyclo[14.7.1.13,7.110,14.017,22]hexacosa-3(26),4,6,10,12,14(25),17(22),18,20-nonaene-8,8-dione] | < 1 | ++ (++ is 30-60%) |
| – | – | Cc1cccc(C)c1-c1cc2nc(n1)NS(=O)(=O)c1cccc(c1)C(=O)N1CCOC[C@@H]1[C@@H](Cc1ccccc1)O2 [Compound 209, (8R)-9-Benzyl-13-(2,6-dimethylphenyl)-6,10-dioxa-17λ^6-thia-3,14,16,23-tetraazatetracyclo[16.3.1.111,15.03,8]tricosa-1(22),11,13,15(23),18,20-hexaene-2,17,17-trione] | < 1 | +++ (+++ is >60%) |
| – | – | Cc1cccc(C)c1-c1cc2nc(n1)NS(=O)(=O)c1cccc(c1)C(=O)N1Cc3ccccc3C[C@@H]1CO2 [Compound 211, (12R)-17-(2,6-Dimethylphenyl)-14-oxa-21λ^6-thia-3,18,20,27-tetraazapentacyclo[20.3.1.115,19.03,12.05,10]heptacosa-1(26),5(10),6,8,15(27),16,18,22,24-nonaene-2,21,21-trione] | < 1 | +++ (+++ is >60%) |

| Compound | Ent. A Max Activity (%) (Enteroid Assay A) | EC50 (Enteroid Assay A) [µM] | EC50 [1] [µM] | Ent. A Max Activity (%) [2] |
| --- | --- | --- | --- | --- |
| Cc1cccc(C)c1-c1cc2nc(n1)NS(=O)(=O)c1cccc(c1)C(=O)N1CCCN(Cc3ccccc3)CC(C1)O2 (centres unmarked) [Compound 205, 18-Benzyl-12-(2,6-dimethylphenyl)-15-oxa-8λ^6-thia-1,9,11,18,23-pentaazatetracyclo[14.5.1.13,7.110,14]tetracosa-3,5,7(24),10,12,14(23)-hexaene-2,8,8-trione] | ++ (++ is 30-60%) | < 1 | – | – |
